From publication PMC6054517, “Design and synthesis of novel oridonin analogues as potent anticancer agents” (Journal of Enzyme Inhibition and Medicinal Chemistry, 2018)
Like-named read-outs stand apart in the source and are kept apart here.

Legend:
[1] = tested on: AGS; assay: MTT antiproliferative assay, AGS cells; type: cell-based, human; details: for IC50: Homo sapiens, AGS, 48 h, MTT, means ± SD, n = 3; for Selectivity index AGS: IC50 on normal cells (L02)/IC50 on tumour cells (AGS)
Description: (§1) Human gastric cancer (AGS), human differentiation of advanced gastric cancer (MGC803), human colorectal cancer (HCT116), human lung cancer (A549), human hepatocellular carcinoma (Bel7402) and human cervical cancer (HeLa) cell lines were obtained from the State Key Laboratory of Natural Resources and Functional Molecules of the Changbai Mountain (Yanbian University) and maintained in Dulbecco’s modified Eagle’s medium and RPMI Media 1640 (RPMI1640), supplemented with 10% foetal bovine serum 100 IU/ml penicillin, […] and 2 mmol/l L-glutamine (Sigma) at 37 °7 in a humidified atmosphere containing 5% CO2.
(§2) All six human cancer cell lines and normal L02 cells were seeded in 96-well plates at the appropriate densities to ensure exponential growth throughout the experimental period (9 × 10^3 cells per well) and then allowed to adhere for 24 h. The cells were then treated for 48 h with four serial dilutions (100, 50, 10, and 1 µM) of each compound. 5-Fluorouracil (5-FU) was used as the positive control. After incubation for 48 h, 10 µl MTT solution was added to each well to give a final concentration of 2 mg ml^−1. The plates were then incubated for further 4 h. After incubation, the MTT solution was removed and 150 µl DMSO was added to each well to solubilise the formed product. To ensure complete solubilisation, the plates were shaken vigorously for 10 min at room temperature. The optometric density (OD) was read on a microplate reader (ELx800, BioTek, Highland Park, Winooski, VT) at a wavelength of 492 nm and the data were subsequently analysed. The percentage of cell growth inhibition was calculated from the following equation: inhibitory rate (%) = [1–(ODtreated–ODblank)/(ODcontrol–ODblank)] × 100.
(§3) The MTT assay was performed using a standard protocol.

[2] = tested on: MGC803; assay: MTT antiproliferative assay, MGC803 cells; type: cell-based, human; details: for IC50: Homo sapiens, MGC-803, MTT, 48 h, means ± SD, n = 3; for Selectivity index MGC803: IC50 on normal cells (L02)/IC50 on tumour cells (MGC803)
Description: as §1, §2, §3

[3] = tested on: Bel7402; assay: MTT antiproliferative assay, Bel7402 cells; type: cell-based, human; details: for IC50: Homo sapiens, Bel-7402, MTT, 48 h, means ± SD, n = 3
Description: as §1, §2, §3

[4] = tested on: HCT116; assay: MTT antiproliferative assay, HCT116 cells; type: cell-based, human; details: for IC50: MTT, 48 h, means ± SD, n = 3; for Selectivity index HCT116: IC50 on normal cells (L02)/IC50 on tumour cells (HCT116)
Description: as §1, §2, §3

[5] = tested on: A549; assay: MTT antiproliferative assay, A549 cells; type: cell-based, human; details: for IC50: Homo sapiens, A549, MTT, 48 h, means ± SD, n = 3; for Selectivity index A549: IC50 on normal cells (L02)/IC50 on tumour cells (A549)
Description: as §1, §2, §3

[6] = tested on: Hela; assay: MTT antiproliferative assay, HeLa cells; type: cell-based, human; details: for IC50: Homo sapiens, HeLa, MTT, 48 h, means ± SD, n = 3; for Selectivity index Hela: IC50 on normal cells (L02)/IC50 on tumour cells (Hela)
Description: as §1, §2, §3

[7] = tested on: L02; assay: MTT assay on normal cell line L02; type: cell-based; details: normal human liver cell line L02, MTT, 48 h
Protocol: as §2, with “5-Fluorouracil (5-FU) was used as the positive control.” left out
Lack of selective cytotoxicity is the main factor that restricts the dose of most conventional chemotherapeutic agents. […] Selectivity indexes between cancer cells and L-02 cells were calculated.

[8] = tested on: HCT116 cells; assay: Cell cycle distribution by flow cytometry (PI); type: cell-based, human; details: HCT116, 5 μM, 48 h; control 19.35%
Protocol: HCT116 cells were plated in six-well plates (1.0 × 10^6 cells per well) and incubated at 37 °7 for 12 h. Exponentially growing cells were then incubated with compound 2p at different concentrations (0 , 5.0 µM) and oridonin at 5.0 µM. After 48 h, the cells were centrifuged at 1000 rpm for 10 min and then fixed in 70% ethanol at −20 °0 for at least 24 h. The cells were subsequently resuspended in phosphate-buffered saline (PBS) containing 50 µg ml^−1 RNase A and 50 µg ml^−1 PI. The cellular DNA content for the cell cycle distribution analysis was measured by flow cytometry using a FACSCalibur flow cytometer with Cell Quest software (Becton-Dickinson, Franklin Lakes, NJ), plotting at least 30,000 events per sample. The percentage of cells in the G1, S and G2 phases of the cell cycle were determined using the ModFit LT V4.0 software package (Verity Software, Topsham, ME).
Numerous cytotoxic compounds exert their antiproliferative effect by inducing cell cycle arrest (at a particular cell cycle checkpoint), apoptosis, or both[25]. These mechanisms are considered to be effective anticancer strategies. We used fluorescence-activated cell sorting analysis to explore the mechanism by which compound 2p reduced the viability of HCT116 cells. Compound 2p and oridonin were selected and tested against HCT116 cell lines at a concentration of 5 µM.

[9] = tested on: HCT116 cells; assay: Apoptosis by flow cytometry (annexin V-FITC/PI); type: cell-based, human; details: HCT116, 5 µM, 48 h; vehicle 6.20%
Protocol: Apoptosis was detected using an Apoptosis Detection Kit (Invitrogen, Eugene, OR). Briefly, cells were plated in six-well plates (1.0 × 10^6 cells per well) and incubated at 37 °C for 12 h. Exponentially growing cells were then incubated with compound 2p at different concentrations (0 , 5.0 µM) and oridonin at 5.0 µM. Following 48 h of incubation, the cells were collected and washed twice with PBS, once with 1 × binding buffer, and then stained with 5 µM annexin V-FITC and 2.5 µM PI in 1 × binding buffer for 30 min at room temperature in the dark. Apoptotic cells were quantified using a FACSCalibur flow cytometer with the Cell Quest software (Becton-Dickinson).
Because compound 2p arrested the cells in the G2 phase, we investigated whether it also causes apoptosis. HCT116 cells were treated with the vehicle, compound 2p (5 µM), or oridonin (5 µM) for 48 h, and then stained with annexin V-FITC and PI.

[10] = tested on: AGS, MGC803, Bel7402, HCT116, A549, and HeLa; assay: MTT assay, overall statement on six tumour cell lines; type: cell-based, human; details: six cancer cell lines
Description: as §1, §2, §3

[11] = tested on: HCT116; details: cited from earlier work

Structure (SMILES) | IC50 [1] [µM] | Selectivity index AGS [1] | IC50 [2] [µM] | Selectivity index MGC803 [2] | IC50 [3] [µM] | IC50 ([4]; Homo sapiens, HCT-116, 48 h) [µM] | Selectivity index HCT116 [4] | IC50 value in L02 cells relative to that in HCT116 cells (selectivity) ([4]; L02 versus HCT116) [fold] | IC50 [4] [µM] | IC50 [5] [µM] | Selectivity index A549 [5] | IC50 [6] [µM] | Selectivity index Hela [6] | IC50 [7] [µM] | percentage of G2 cell population [8] [%] | percentage of total apoptotic cells (right quadrants, Q2 + Q3) [9] [%] | antiproliferative activities against the six tumour cell lines (in words) [10] | IC50 [11] [µM] | Selectivity index Bel7402 ([3]; IC50 on normal cells (L02)/IC50 on tumour cells (Bel7402))
CC(C)=CCOc1ccc(/C=C2/C(=O)[C@]34[C@H](O)[C@H]2CC[C@H]3C23CO[C@]4(O)[C@@H](O)[C@@H]2C(C)(C)CC[C@@H]3O)cc1 [Compound 2p, (1S,4aR,5S,6S,6aR,9S,11aS,14R,E)-1,5,6,14-tetrahydroxy-4,4-dimethyl-8-(4-((3-methylbut-2-en1yl)oxy)benzylidene)decahydro-1H-6,11b-(epoxymethano)-6a,9-methanocyclohepta[a]naphthalen-7(8H)-one] | 4.09 ± 0.65 | 3.28 | 4.54 ± 0.94 | 0.75 | 3.21 ± 0.58 | 1.08 | 6.55 | 6.5 | 1.05 ± 0.23 | 5.9 ± 0.52 | 1.17 | 6.33 ± 0.96 | 1.09 | 6.88 ± 1.12 | 41.46 | 60.94 | more potent antiproliferative activities in vitro than oridonin | – | –
CC(C)=CCOc1ccc(C(=O)/C=C/c2ccc(Cl)cc2)c(O)c1 [Compound 4] | – | – | – | – | – | – | – | – | – | – | – | – | – | – | – | – | – | 0.89 | –
C=C1C(=O)[C@]23[C@H](O)[C@H]1CC[C@H]2[C@@]12CO[C@]3(O)[C@@H](O)[C@@H]1C(C)(C)CC[C@@H]2O [Oridonin] | 8.35 ± 0.41 | 0.83 | 9.18 ± 1.01 | 0.76 | 9.59 ± 1.19 | 6.84 ± 0.98 | 1.02 | – | – | 24.7 ± 2.11 | 0.28 | 15 ± 2.01 | 0.46 | 6.97 ± 0.98 | 37.80 | 24.84 | – | – | 0.73
